Test results: publication PMC11636765, “Importance of Considering Fed-State Gastrointestinal Physiology in Predicting the Reabsorption of Enterohepatic Circulation of Drugs” (Pharmaceutical Research, 2024)
In brackets after ≈: the same amount, converted by molar mass. Like-named read-outs stand apart in the source and are kept apart here.

Experiments:
[1] = Solubility test of drug substances in biorelevant media and free fraction calculation; assay type: physicochemical; conditions: for Free fraction: fraction of drug not entrapped in micelles in FeSSIF-V2, Eq. (8), from FaSSIF-V2/FeSSIF-V2 solubility; for Solubilization by bile micelles: in vitro solubility in biorelevant media
Experimental: (§1) Fasted State Simulated Gastric Fluid (FaSSGF) and Fasted State Simulated Intestinal Fluid version 2 (FaSSIF-V2) were used for dissolution tests and solubility tests. Fed State Simulated Intestinal Fluid version 2 (FeSSIF-V2) was used for solubility tests. These media contain sodium taurocholate as the bile acid. Their composition and preparation method have been previously reported and were prepared accordingly, except that FaSSGF was used without pepsin.
The excess amount of ezetimibe powder was added to 10 mL FaSSIF-V2 and FeSSIF-V2. Test tubes containing the drug substances in the biorelevant media were vigorously shaken at 37℃ ± 0.5℃ for 5 h. An approximately 5 mL sample was withdrawn using a plastic syringe, then filtered through a PVDF 0.45 µm filter. The filtrates (after discarding the first ca. 2 mL) were diluted with 50:50 v/v acetonitrile for analysis to prevent precipitation, except for that of ezetimibe tested in FeSSIF-V2. All solubility tests were conducted in triplicate.
(§2) TSKgel ODS-100Z 5 µm (4.6 mm × 15 cm, Tosoh Corporation, Tokyo, Japan) was used as analytical column for both drugs. Column temperature during analysis was set to 40℃. A mixture of perchlorate (Na) buffer pH 2.5 and acetonitrile (50:50, v/v) was used as mobile phase. […] Flow rate and injection volume were 1.2 mL/min and 10 μL, respectively.
Sodium taurocholate and lecithin concentration in FaSSIF-V2 are 3 mM and 0.2 mM, respectively, and those in FeSSIF-V2 are 10 mM and 2 mM, respectively. […] The formulation was considered able to exist in the small intestine for 4 h after administration. Initial intestinal fluid volume in both prandial states was set to 100 mL [31].

[2] = In vitro dissolution test of tablets in biorelevant media (USP apparatus II paddle); assay type: physicochemical; conditions: for Dissolution in FaSSIF-V2: tablet, 500 mL, paddle 50 rpm, up to 60 min
Experimental: as §1
For in vitro dissolution tests, a USP apparatus II paddle dissolution tester (NTR-6400AC, Toyama Sangyo Co., Ltd., Osaka, Japan) was used. The media volume of FaSSGF and FaSSIF-V2 was 300 mL and 500 mL, respectively, and temperature in the dissolution vessel was maintained at 37℃ ± 0.5℃. […] Paddle rotation speed during the dissolution test was maintained at 50 rpm for up to 60 min. The samples were filtered through PVDF 0.45 µm filters (Whatman, GD/X, 13 mm, Cytiva, Chicago, IL, USA) immediately after withdrawal, and filtrates were recovered after the first 2 mL was discarded. […] All dissolution tests were conducted in triplicate.
When the tablets […] during the infinity spin in the dissolution test, separate solubility measurements were performed, as described in the next paragraph.
as §2, with “respectively. […]” for “respectively.”

[3] = cited from earlier work
[4] = cited from earlier work; remark: listed apart in the source
[5] = cited from earlier work; remark: listed apart in the source
[6] = set-up: method as in earlier work; conditions: cited from earlier work
[7] = Estimation of effective permeability (Peff) in the human small intestine from Caco-2 Papp
Text: The Papp for each compound was cited from previous reports [39, 40] or calculated using an equation [41] based on the reported partition coefficient [25, 42].

[8] = FaSSIF-V2, drug substance powder, 37℃, shaken 5 h, pH 6.5, read-out: Solubility in FaSSIF-V2
[9] = FeSSIF-V2, 37 °C, fessif, thermodynamic from solid, drug substance powder, 37℃, shaken 5 h, pH 5.8, read-out: Solubility in FeSSIF-V2

Row | Structure (SMILES) | solubility at 5 h [1, 8] [µg/mL] | solubility at 5 h [1, 9] [µg/mL] | Free fraction [1] | Solubilization by bile micelles [1] | solubility at 120 min ([2]; FaSSIF-V2, for PK simulation, Zetia: infinity point of tablet dissolution test, Mobic: adopted from drug substance solubility test) [µg/mL] | Dissolution in FaSSIF-V2 [2] | Log P [3] | pKa [4] | Effect of concomitant food on extent of absorption [5] | Solubility in the aqueous phase [6] | Papp [7] [×10⁻⁶ cm/s] | solubility at 5 h ([1]; blank FaSSIF-V2 (without surfactant), drug substance, medium without surfactant, read-out: Solubility in blank FaSSIF-V2) [µg/mL] | solubility at 5 h ([1]; blank FeSSIF-V2 (without surfactant), drug substance, medium without surfactant, read-out: Solubility in blank FeSSIF-V2) [µg/mL] | Free fraction ([1]; listed as meloxicam) | Log P ([3]; calculated value based on apparent partition coefficient Log Papp) | Plasma concentration of glucuronide relative to parent drug in terms of AUC ([5]; humans, Zetia tablet)
1 | O=C1[C@H](CC[C@H](O)c2ccc(F)cc2)[C@@H](c2ccc(O)cc2)N1c1ccc(F)cc1 [Ezetimibe, ezetimibe] | 3.79 ± 0.133 (≈ 9.26 µM) | 22.3 ± 0.203 (≈ 54.5 µM) | 0.169 | clearly shown to be solubilized by the mixed micelles | 4.93 (≈ 12 µM) | around 20% | 4.5 | 9.7 | not affected | virtually insoluble | 121 |  |  |  |  | 
2 | Cc1cnc(NC(=O)C2=C(O)c3ccccc3S(=O)(=O)N2C)s1 [Meloxicam, meloxicam] | 172 ± 12.3 (≈ 489 µM) | 42.7 ± 1.53 (≈ 122 µM) | Regard as 1 | insignificant |  | about 80% |  |  |  |  |  | 164 (≈ 467 µM) | 32.5 (≈ 92.5 µM) | 1 | 3.32 | 
3 | O=C(O)[C@H]1O[C@@H](Oc2ccc([C@@H]3[C@@H](CC[C@H](O)c4ccc(F)cc4)C(=O)N3c3ccc(F)cc3)cc2)[C@H](O)[C@@H](O)[C@@H]1O [glucuronide] |  |  |  |  |  |  |  |  |  |  |  |  |  |  |  | about seven-fold
